The subject of one assay is U937 cell. The assay can be described thus: Cell inhibition assay method B (tritiated thymidine incorporation, 72 hrs). Type of assay: cell-based. The note with it: Homo sapiens, U-937, read-out: Inhibition of U937 cell proliferation (IC50, nM) (method B). As to the method: (§1) Cell inhibition assays were carried out using either method A or method B
The plates were then incubated at 37° C., 5% CO2 for 72 hrs.
A tritiated thymidine incorporation assay was used as a measure of cell proliferation. In short, cells were incubated with 0.4 μCi/well for 4 hrs before harvesting onto filtermats. These were dried, meltilex scintillation sheets melted on, then sealed in bags and ^3H emission counted on a Trilux microbeta counter.

Another assay deals with T1, PLK1 (Homo sapiens, UniProt P53350).
T1 construct: purchased Invitrogen (Paisley, UK)
T1 sequence (P53350 whole entry): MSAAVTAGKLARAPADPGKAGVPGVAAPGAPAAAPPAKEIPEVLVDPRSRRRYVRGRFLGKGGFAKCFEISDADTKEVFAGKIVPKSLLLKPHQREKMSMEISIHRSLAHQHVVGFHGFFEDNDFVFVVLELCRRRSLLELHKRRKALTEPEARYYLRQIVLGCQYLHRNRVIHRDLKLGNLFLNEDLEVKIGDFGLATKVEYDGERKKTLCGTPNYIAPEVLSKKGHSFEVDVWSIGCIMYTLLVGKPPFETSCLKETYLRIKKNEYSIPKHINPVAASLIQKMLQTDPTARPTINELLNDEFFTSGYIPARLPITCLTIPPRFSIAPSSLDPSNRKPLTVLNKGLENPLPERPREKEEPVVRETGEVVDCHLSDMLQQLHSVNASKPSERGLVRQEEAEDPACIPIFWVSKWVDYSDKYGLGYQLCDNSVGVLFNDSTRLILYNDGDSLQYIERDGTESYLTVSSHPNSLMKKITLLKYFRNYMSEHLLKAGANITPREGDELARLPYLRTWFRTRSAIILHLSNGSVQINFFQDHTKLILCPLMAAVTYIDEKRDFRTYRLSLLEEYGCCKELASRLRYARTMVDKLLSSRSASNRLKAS
The assay can be described thus: PLK1 enzyme assay (Z'-LYTE, Invitrogen). The class given is biochemical. As to the method: The ability of compounds to inhibit PLK-1 kinase activity was measured in an assay performed by Invitrogen (Paisley, UK). The Z′-LYTE™ biochemical assay employs a fluorescence-based, coupled-enzyme format and is based on the differential sensitivity of phosphorylated and non-phosphorylated peptides to proteolytic cleavage. The peptide substrate is labelled with two fluorophores—one at each end—that make up a FRET pair. In the primary reaction, the kinase transfers the gamma-phosphate of ATP to a single serine or threonine residue in a synthetic FRET-peptide. In the secondary reaction, a site-specific protease recognizes and cleaves non-phosphorylated FRET-peptides. Phosphorylation of FRET-peptides suppresses cleavage by the Development Reagent. Cleavage disrupts FRET between the donor (i.e., coumarin) and acceptor (i.e., fluorescein) fluorophores on the FRET-peptide, whereas uncleaved, phosphorylated FRET-peptides maintain FRET. A […] method, which calculates the ratio (the Emission Ratio) of donor emission to acceptor emission after excitation of the donor fluorophore at 400 nm, is used to quantitate reaction progress.
The assay is performed at an ATP concentration at, or close to, the Km. After the 60 minute Kinase Reaction incubation at RT, 5 μL of a 1:8 dilution of Development Reagent is added. The assay plate is incubated for a further 60 minutes at RT and read on a fluorescence plate reader.
Duplicate data points are generated from a ⅓ log dilution series of a stock solution of test compound in DMSO. Nine dilutions steps are made from a top concentration of 10 μM, and a ‘no compound’ blank is included. Data is collected and analysed using XLfit software from IDBS.

A further assay relates to HCT 116 cell line. The assay can be described thus: Cell inhibition assay method A (WST-1, 120 hrs). The conditions noted are these: Homo sapiens, HCT-116, method A, read-out: Inhibitor Activity vs HCT 116 cell line (method A). Type of assay: cell-based. As to the method:
as §1
Cells were seeded in 96W tissue culture plates (1 well=30 mm^2) at a density of […] per well in 50 μL of the appropriate culture medium (see below). 24 hrs later […] of the compound prepared in the same medium was added as 4 fold dilutions to give final concentrations in the range 0.15 nM-2500 nM (n=6 for each concentration). The plates were then incubated at 37° C., 5% CO2 for 120 hrs. Cell proliferation was assessed using WST-1 (a metabolic indicator dye, Roche Cat no. 1 644 807) according to the manufacturers instructions. The results were calculated as percentage of vehicle response and IC50 values represent the concentration of compound that inhibited the vehicle response by 50%.
HCT-116 culture medium —Dulbeccos MEM (Sigma D6546) plus 10% heat inactivated fetal calf serum (Hyclone SH30071 Thermo Fischer Scientific) containing 2 mM Glutamine (Sigma cat no G-7513) and 50 U/ml Penicillin and Streptomycin Sulphate (Sigma Cat no P-0781).

Where [1] appears, read: ATP at or close to Km, read-out: Inhibitor Activity vs PLK1.

Like-named read-outs stand apart in the source and are kept apart here. Where only a bound is given, the exact number is not on record here.

For the compound `CC[C@@H]1C(=O)N(C)c2cnc(Nc3ccc(C(=O)NC4CCN(CC[C@H](N)C(=O)OC5CCCC5)CC4)cc3OC)nc2N1C1CCCC1` [Example 22, Cyclopentyl (2S)-2-amino-4-{4-[(4-{[(7R)-8-cyclopentyl-7-ethyl-5-methyl-6-oxo-5,6,7,8-tetrahydropteridin-2-yl]amino}-3-methoxybenzoyl)amino]piperidin-1-yl}butanoate], the IC50 in the assay with U937 cell is 0.09 nM; on PLK1 (setting [1]) it was below 100 nM; on PLK1 (ester (for Compound 1: the compound itself, one cell spans ester/acid), read-out: Inhibition of PLK (IC50, nM) ester), 6 nM; with HCT 116 cell line it was below 100 nM.

As to `CC[C@@H]1C(=O)N(C)c2cnc(Nc3ccc(C(=O)NC4CCN(CCC[C@@H](N)C(=O)OC5CCCC5)CC4)cc3OC)nc2N1C1CCCC1` [Example 27, Cyclopentyl 5-{4-[(4-{[(7R)-8-cyclopentyl-7-ethyl-5-methyl-6-oxo-5,6,7,8-tetrahydropteridin-2-yl]amino}-3-methoxybenzoyl)amino]piperidin-1-yl}-D-norvalinate], the IC50 at PLK1 (setting [1]) and in the assay with HCT 116 cell line was below 100 nM throughout.

As for `CC[C@@H]1C(=O)N(C)c2cnc(Nc3ccc(C(=O)NC4CCN(CC[C@H](N)C(=O)OC(C)(C)C)CC4)cc3C)nc2N1C1CCCC1` [Example 26, t-Butyl (2S)-2-amino-4-{4-[(4-{[(7R)-8-cyclopentyl-7-ethyl-5-methyl-6-oxo-5,6,7,8-tetra hydropteridin-2-yl]amino}-3-methylbenzoyl)amino]piperidin-1-yl}butanoate], the IC50 on PLK1 (setting [1]) and in the assay with HCT 116 cell line was below 100 nM each time.

With `CC[C@@H]1C(=O)N(C)c2cnc(Nc3ccc(C(=O)NC4CCN(CCC[C@H](N)C(=O)OC(C)(C)C)CC4)cc3OC)nc2N1C1CCCC1` [Example 23, tert-butyl 5-{4-[(4-{[(7R)-8-cyclopentyl-7-ethyl-5-methyl-6-oxo-5,6,7,8-tetrahydropteridin-2-yl]amino}-3-methoxybenzoyl)amino]piperidin-1-yl}-L-norvalinate], the IC50 on PLK1 (setting [1]) and with HCT 116 cell line was below 100 nM each time.

In the case of `CC[C@@H]1C(=O)N(C)c2cnc(Nc3ccc(C(=O)NCc4ccc(OCC[C@H](N)C(=O)OC5CCCC5)cc4)cc3OC)nc2N1C1CCCC1` [Example 9, Cyclopentyl O-(4-{[(4-{[(7R)-8-cyclopentyl-7-ethyl-5-methyl-6-oxo-5,6,7,8-tetrahydropteridin-2-yl]amino}-3-methoxybenzoyl)amino]methyl}phenyl)-L-homoserinate], the IC50 on PLK1 (setting [1]) was 100 to 500 nM; with HCT 116 cell line, below 100 nM.

For the compound `CC[C@@H]1C(=O)N(C)c2cnc(Nc3ccc(C(=O)NC4C5CN(CC[C@H](N)C(=O)OC6CCCC6)CC54)cc3OC)nc2N1C1CCCC1` (stereo partly drawn) [Example 18, Cyclopentyl (2S)-2-amino-4-{6-[(4-{[(7R)-8-cyclopentyl-7-ethyl-5-methyl-6-oxo-5,6,7,8-tetrahydropteridin-2-yl]amino}-3-methoxybenzoyl)amino]-3-azabicyclo[3.1.01]hex-3-yl}butanoate], the IC50 on PLK1 (setting [1]) and with HCT 116 cell line was below 100 nM each time.

Take `CC[C@@H]1C(=O)N(C)c2cnc(Nc3ccc(OCC[C@H](N)C(=O)OC4CCCC4)cc3OC)nc2N1C1CCCC1` [Example 4, Cyclopentyl O-(4-{[(7R)-8-cyclopentyl-7-ethyl-5-methyl-6-oxo-5,6,7,8-tetrahydropteridin-2-yl]amino}-3-methoxyphenyl)-L-homoserinate]: the IC50 on PLK1 (setting [1]) and in the assay with HCT 116 cell line was below 100 nM throughout.

With `CC[C@@H]1C(=O)N(C)c2cnc(Nc3ccc(C(=O)NC4CCN(CC[C@H](N)C(=O)OC(C)(C)C)CC4)cc3F)nc2N1C1CCCC1` [Example 29, t-Butyl (2S)-2-amino-4-{4-{(4-{[(7R)-8-cyclopentyl-7-ethyl-5-methyl-6-oxo-5,6,7,8-tetrahydropteridin-2-yl]amino}-3-fluorobenzoyl)amino]piperidin-1-yl}butanoate], the IC50 on PLK1 (setting [1]) and in the assay with HCT 116 cell line was below 100 nM throughout.

`CC[C@@H]1C(=O)N(C)c2cnc(Nc3ccc(C(=O)N4CCNC(C(=O)OC5CCCC5)C4)cc3OC)nc2N1C1CCCC1` (stereo partly drawn) [Example 13, Cyclopentyl 4-(4-{[(7R)-8-cyclopentyl-7-ethyl-5-methyl-6-oxo-5,6,7,8-tetrahydropteridin-2-yl]amino}-3-methoxybenzoyl)piperazine-2-carboxylate]: the IC50 on PLK1 (setting [1]) is below 100 nM; with HCT 116 cell line it was 100 to 500 nM.

In the case of `CC[C@@H]1C(=O)N(C)c2cnc(Nc3ccc(OCC[C@H](N)C(=O)OC4CCCC4)cc3)nc2N1C1CCCC1` [Example 3, Cyclopentyl O-(4-{[(7R)-8-cyclopentyl-7-ethyl-5-methyl-6-oxo-5,6,7,8-tetrahydropteridin-2-yl]amino}phenyl)-L-homoserinate], the figures for the IC50 at PLK1 (setting [1]) and with HCT 116 cell line were below 100 nM and 100 to 500 nM, respectively.

Values taken from US20100216802A1, “PTERIDINE DERIVATIVES AS POLO-LIKE KINASE INHIBITORS USEFUL IN THE TREATMENT OF CANCER” (CHROMA THERAPEUTICS LTD., priority 2006, published 2010).
